The source of these data is ChEMBL document CHEMBL1201862, “PubChem BioAssay data set” (2004).

For assay [1], the target named is T1, Endoribonuclease toxin MazF (Escherichia coli K-12, UniProt P0AE70).
T1 sequence (P0AE70 whole entry): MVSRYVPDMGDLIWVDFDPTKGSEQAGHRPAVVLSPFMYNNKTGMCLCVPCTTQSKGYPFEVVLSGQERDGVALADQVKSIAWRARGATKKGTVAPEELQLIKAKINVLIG
Nature of the assay: fluorescent RNA oligo signal without MazF, dose response, counter-screen for MazEF activator project, biochemical, fluorescence, single-stranded RNase substrate (AID 588502). The assay is classed as functional. In general terms: Counterscreens check selectivity or assay interference.

For assay [2], the target named is T2, RNA-binding protein pos-1 (Caenorhabditis elegans, UniProt G5EF15).
T2 sequence (G5EF15 whole entry): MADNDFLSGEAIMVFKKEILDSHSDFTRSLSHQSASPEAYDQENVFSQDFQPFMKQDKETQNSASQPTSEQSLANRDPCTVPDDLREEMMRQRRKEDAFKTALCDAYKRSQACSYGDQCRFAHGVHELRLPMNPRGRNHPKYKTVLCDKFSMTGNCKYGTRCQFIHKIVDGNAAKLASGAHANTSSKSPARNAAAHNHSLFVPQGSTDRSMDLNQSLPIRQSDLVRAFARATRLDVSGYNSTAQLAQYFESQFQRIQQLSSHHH
Nature of the assay: inhibitors of POS-1/mex-3 RNA binding, dose response, biochemical, fluorescence polarization (AID 1964).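 Also: purified POS-1 fused to maltose binding protein made in E. coli; potency of compounds blocking POS-1 binding to fluorescent RNA.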

Assay [3] has as its target T3, Sentrin-specific protease 8 (Homo sapiens, UniProt Q96LD8).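 Also: luminescence read-out of SENP8 inhibition, dose-response confirmation following an ultra-high-throughput screen.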
T3 sequence (Q96LD8 whole entry): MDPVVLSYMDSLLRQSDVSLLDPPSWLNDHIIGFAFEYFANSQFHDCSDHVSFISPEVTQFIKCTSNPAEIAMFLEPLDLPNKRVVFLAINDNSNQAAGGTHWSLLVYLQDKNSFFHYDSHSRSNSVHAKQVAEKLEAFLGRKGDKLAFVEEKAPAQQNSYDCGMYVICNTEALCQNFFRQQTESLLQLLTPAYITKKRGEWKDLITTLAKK
The assay is classed as functional.

The target in assay [4] is Tyrosyl-DNA phosphodiesterase 2 (Homo sapiens, UniProt O95551). Nature of the assay: human TDP2 enzyme inhibitors, dose response, biochemical, epi absorbance, IC50 (AID 743297).
Sequence of Tyrosyl-DNA phosphodiesterase 2 (O95551 whole entry): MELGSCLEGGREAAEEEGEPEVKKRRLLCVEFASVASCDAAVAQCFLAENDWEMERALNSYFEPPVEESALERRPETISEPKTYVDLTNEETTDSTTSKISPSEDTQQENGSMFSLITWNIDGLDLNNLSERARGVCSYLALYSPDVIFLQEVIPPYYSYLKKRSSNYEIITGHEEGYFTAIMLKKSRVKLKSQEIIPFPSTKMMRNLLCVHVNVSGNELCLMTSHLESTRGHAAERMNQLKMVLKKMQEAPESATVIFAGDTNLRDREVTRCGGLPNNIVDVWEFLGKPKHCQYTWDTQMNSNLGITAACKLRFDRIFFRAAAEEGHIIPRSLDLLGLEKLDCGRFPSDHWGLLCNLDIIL
The target of assay [5] is Serine/threonine-protein phosphatase PP1-alpha catalytic subunit (Homo sapiens, UniProt P62136). Nature of the assay: PP1 phosphatase inhibitors, dose response, biochemical, fluorescence (AID 2394).
Sequence of Serine/threonine-protein phosphatase PP1-alpha catalytic subunit (P62136 whole entry): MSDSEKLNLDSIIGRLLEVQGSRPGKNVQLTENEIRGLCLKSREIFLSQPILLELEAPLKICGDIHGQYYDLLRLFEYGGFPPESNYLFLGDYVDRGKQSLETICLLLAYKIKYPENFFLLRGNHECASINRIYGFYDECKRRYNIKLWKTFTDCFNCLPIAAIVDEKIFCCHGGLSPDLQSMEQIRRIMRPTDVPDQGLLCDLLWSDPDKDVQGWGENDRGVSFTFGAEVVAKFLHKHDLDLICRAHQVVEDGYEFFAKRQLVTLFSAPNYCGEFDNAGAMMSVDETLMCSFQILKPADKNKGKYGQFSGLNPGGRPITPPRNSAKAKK
Assay [6] is described as follows: Luminescence-based counterscreen assay for KLF5 inhibitors: dose response cell-based high throughput screening assay to identify cytotoxic compounds using the IEC-6 intestinal epithelial cell line. [Related pubchem assays: 1700 (Primary screen.), 1834 (Confirmation screen.), 1858 (Summary AID.), 1905 (Counterscreen.)]. The format is functional.
Assay [7] has as its target T4, Apoptotic protease-activating factor 1 (Homo sapiens, UniProt O14727).
T4 sequence (O14727 whole entry): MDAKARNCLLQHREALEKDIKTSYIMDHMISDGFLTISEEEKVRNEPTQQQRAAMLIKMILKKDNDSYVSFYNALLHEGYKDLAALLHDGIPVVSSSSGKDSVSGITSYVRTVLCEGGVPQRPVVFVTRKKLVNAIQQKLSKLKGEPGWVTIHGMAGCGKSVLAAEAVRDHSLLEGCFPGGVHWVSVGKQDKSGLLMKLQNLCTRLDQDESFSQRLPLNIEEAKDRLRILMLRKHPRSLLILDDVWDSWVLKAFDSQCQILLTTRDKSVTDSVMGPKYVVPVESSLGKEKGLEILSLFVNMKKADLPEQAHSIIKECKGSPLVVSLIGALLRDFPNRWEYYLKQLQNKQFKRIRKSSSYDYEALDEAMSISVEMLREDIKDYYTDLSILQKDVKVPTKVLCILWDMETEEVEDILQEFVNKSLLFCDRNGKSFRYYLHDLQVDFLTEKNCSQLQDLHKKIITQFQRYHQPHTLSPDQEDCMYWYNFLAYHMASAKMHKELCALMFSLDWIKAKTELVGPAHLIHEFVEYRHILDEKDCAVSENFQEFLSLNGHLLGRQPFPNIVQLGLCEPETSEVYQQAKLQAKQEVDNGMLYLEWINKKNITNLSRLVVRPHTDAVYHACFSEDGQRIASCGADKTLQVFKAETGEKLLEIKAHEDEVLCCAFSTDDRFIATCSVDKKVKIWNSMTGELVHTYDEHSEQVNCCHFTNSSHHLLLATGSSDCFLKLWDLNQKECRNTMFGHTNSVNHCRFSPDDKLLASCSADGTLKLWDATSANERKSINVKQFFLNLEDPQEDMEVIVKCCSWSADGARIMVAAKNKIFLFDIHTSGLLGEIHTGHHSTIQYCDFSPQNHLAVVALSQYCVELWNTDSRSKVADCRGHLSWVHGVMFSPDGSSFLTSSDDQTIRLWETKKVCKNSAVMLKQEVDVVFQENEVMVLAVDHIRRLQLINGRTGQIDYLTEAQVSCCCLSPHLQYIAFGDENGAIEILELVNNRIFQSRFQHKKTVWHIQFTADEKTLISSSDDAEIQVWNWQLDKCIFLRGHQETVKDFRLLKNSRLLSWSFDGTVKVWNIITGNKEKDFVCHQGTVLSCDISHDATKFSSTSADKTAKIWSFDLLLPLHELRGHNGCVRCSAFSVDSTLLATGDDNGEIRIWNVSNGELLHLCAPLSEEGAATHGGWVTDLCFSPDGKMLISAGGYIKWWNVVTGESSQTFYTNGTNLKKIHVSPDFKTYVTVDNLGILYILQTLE
The assay is classed as functional.

A short description of assay [8]: Artemis endonuclease inhibitor potency, dose response, biochemical, fluorescence intensity (AID 720701).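 Also: Artemis endonuclease enzyme.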 The format is functional.
A short description of assay [9]: A375 melanoma cell viability loss, dose response, counter-screen for MITF inhibitor project, CellTiter-Glo luminescence, dry powder, set 4 (AID 624364).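 Also: A375 melanoma cells are MITF independent so this is a counter screen.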 The format is functional, cell-based. The note with it: A-375.
For assay [10], the target named is T5, Microphthalmia-associated transcription factor (Homo sapiens, UniProt O75030).
T5 sequence (O75030 whole entry): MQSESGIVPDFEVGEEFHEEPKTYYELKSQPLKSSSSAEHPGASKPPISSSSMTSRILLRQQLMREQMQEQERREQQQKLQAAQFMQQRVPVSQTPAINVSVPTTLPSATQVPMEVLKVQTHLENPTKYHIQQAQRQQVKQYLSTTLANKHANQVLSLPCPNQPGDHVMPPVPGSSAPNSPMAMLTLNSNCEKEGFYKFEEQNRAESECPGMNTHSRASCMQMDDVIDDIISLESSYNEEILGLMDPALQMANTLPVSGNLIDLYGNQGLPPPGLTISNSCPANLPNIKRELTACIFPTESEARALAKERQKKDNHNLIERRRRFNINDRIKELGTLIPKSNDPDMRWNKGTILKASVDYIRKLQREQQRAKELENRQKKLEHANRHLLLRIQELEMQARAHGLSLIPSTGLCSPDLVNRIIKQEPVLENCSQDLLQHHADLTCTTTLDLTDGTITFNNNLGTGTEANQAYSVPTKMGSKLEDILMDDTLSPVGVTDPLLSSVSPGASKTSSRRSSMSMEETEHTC
Nature of the assay: TRPM1 promoter luciferase signal decrease, dose response, MITF inhibitor project, cell-based, SK-MEL-5, cherry-picked, set 3 (AID 493073).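 Also: SK-MEL-5 melanoma cells with luciferase driven by the MITF target TRPM1 promoter.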 The assay is classed as functional.

The source made the active and inactive calls.

The EC50 is the concentration that produces a half-maximal response. A word on the IC50: it is the concentration that inhibits the measured activity by half. What is called AC50 is the concentration giving half of the maximal activity seen.

Consider `Oc1[nH]c2ccccc2c1N=Nc1ccc(F)cc1`, for which the EC50 in assay [1] was > 99 µM (inactive); in [2] it was > 300 µM (not active). Moreover, the IC50 in assay [3] was 3.07 µM (active).

On to `O=C1C(Nc2ccccc2)=C(N2CCCCC2)C(=O)c2ccccc21`, for which the IC50 in assay [4] was > 128 µM (inactive); in assay [5] it was > 67 µM (not active); in assay [6], > 39.8 µM (not active); in assay [7], 4.78 µM (active); in [8], 18.9 µM (active). Further, the results for the AC50 in assay [9] and in [10] were 37.4 µM (active) and 6.67 µM (active), respectively.
